Literature values, collected in patent publication US8097726B2, “Huperzine a compound for treatment of alzheimer's disease” (priority 2006, dated 2012).

Tests used:
[1] = rapidly eliminated from the kidneys
[2] = administered orally at 0.2 mg twice a day for 8 weeks; AD patients

## C/C=C1\[C@H]2C=C(C)C[C@]1(N)c1ccc(=O)[nH]c1C2 [huperzine A]
[1]
  half-life in plasma: 4 to 5 h
[2]
  patients with significant improvement in memory, cognition and behavior: 58%
